Values quoted from earlier work in patent publication US20220160670A1, “COMPOSITION COMPRISING L-CARNITINE FOR THE TREATMENT OF MALE INFERTILITY” (LABORATOIRE DES GRANIONS, priority 2017, published 2022).

How the values were obtained:
[1] = tested on: total forward motility of spermatozoa; conditions: treatment of 6 months; 3 g/day L-carnitine, 3 g/day L-acetylcarnitine, or 2 g/day + 1 g/day combined
[2] = tested on: number and total forward motility of spermatozoa; conditions: 2 g/day for 2*2 months; patients with 10 to 20 million/ml and total mobility 10% to 30% at inclusion

| Compound | effect on total forward motility of spermatozoa [1] | effect on number of spermatozoa [2] | effect on total forward motility of spermatozoa [2] |
| --- | --- | --- | --- |
| CC(=O)O[C@H](CC(=O)[O-])C[N+](C)(C)C [L-acetylcarnitine] | significantly increases | – | – |
| C[N+](C)(C)C[C@H](O)CC(=O)[O-] [L-carnitine] | significantly increases | increase | increase |
